Assay results as given in paper PMC8939339, “Mechanism of Cooperative Degradation of Gum Arabic Arabinogalactan Protein by Bifidobacterium longum Surface Enzymes” (Applied and Environmental Microbiology, 2022).

Target: T1, BlArafE (Bifidobacterium longum, UniProt A0ACD7UMY4)
T1 construct: gene BLLJ_1850; signal peptide (aa 1-26) and C-terminal TM region (aa 1637-1659) removed; printed insert 88 to 4899 (nucleotides); His-tag (printed both as C- and N-terminal; pET23b); E. coli BL21(DE3); 175 kDa
T1 sequence (A0ACD7UMY4 30-1633): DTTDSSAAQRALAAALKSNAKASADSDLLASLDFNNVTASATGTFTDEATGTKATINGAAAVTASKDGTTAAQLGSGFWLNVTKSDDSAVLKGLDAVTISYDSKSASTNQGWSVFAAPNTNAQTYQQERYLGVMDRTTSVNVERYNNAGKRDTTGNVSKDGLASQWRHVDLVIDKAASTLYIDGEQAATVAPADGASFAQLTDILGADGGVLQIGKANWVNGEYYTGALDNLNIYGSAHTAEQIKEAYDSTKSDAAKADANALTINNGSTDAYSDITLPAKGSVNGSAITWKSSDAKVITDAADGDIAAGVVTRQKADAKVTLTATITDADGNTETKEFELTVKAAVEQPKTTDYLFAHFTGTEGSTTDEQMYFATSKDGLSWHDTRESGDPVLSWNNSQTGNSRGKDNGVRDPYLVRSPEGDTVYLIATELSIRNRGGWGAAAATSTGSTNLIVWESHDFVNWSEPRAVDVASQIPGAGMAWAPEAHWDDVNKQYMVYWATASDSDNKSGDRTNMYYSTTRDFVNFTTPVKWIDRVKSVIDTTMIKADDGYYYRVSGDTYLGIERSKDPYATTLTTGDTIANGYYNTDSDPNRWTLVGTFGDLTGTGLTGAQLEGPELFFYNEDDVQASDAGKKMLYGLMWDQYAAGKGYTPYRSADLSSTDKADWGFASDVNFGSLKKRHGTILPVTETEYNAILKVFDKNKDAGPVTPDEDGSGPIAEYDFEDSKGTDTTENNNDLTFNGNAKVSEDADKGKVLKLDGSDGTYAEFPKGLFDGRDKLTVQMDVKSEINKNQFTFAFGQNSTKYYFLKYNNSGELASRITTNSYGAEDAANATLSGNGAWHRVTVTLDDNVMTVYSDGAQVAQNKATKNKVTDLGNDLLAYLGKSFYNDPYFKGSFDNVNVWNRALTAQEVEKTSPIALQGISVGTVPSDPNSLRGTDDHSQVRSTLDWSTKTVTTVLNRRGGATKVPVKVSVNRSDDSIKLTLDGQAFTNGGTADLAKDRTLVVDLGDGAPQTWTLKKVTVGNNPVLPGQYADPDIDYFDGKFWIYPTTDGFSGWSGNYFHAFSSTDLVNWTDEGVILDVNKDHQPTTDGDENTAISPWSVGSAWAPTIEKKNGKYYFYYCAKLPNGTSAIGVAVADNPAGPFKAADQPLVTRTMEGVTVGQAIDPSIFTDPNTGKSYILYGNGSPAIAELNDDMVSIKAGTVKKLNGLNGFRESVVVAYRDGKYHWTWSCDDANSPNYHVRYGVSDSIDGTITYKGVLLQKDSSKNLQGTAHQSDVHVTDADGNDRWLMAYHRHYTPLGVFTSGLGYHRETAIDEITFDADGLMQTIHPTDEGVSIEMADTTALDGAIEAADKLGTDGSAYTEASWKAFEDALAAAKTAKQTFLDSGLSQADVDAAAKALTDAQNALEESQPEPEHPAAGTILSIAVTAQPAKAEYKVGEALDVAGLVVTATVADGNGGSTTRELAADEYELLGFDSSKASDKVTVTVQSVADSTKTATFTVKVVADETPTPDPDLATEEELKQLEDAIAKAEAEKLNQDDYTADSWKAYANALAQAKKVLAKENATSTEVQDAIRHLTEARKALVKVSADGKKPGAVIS
Test: HPAEC-PAD of reaction products
Format: biochemical
Settings: 50 mM sodium acetate pH 6.0, 37 °C, 16 h; both alpha1,3- and alpha1,4-Araf cleaved

SMILES: C[C@@H]1O[C@@H](O[C@H]2[C@H](O)[C@@H](O)[C@H](OC[C@H]3O[C@@H](OC[C@H]4OC(O)[C@H](O)[C@@H](O)[C@H]4O)[C@H](O)[C@@H](OC4O[C@@H](CO)C(O)[C@H]4O)[C@H]3OC3O[C@@H](CO)C(O)[C@H]3O)O[C@@H]2C(=O)O)[C@H](O)[C@H](O)[C@H]1O (stereo partly shown) [S5-A]
- HPAEC-PAD of reaction products: BlArafE cleaved S5-A into S4 and L-arabinose
